This assay concerns Klebsiella pneumoniae. The experiment in a line: MIC assay. The class given is cell-based.

As to `O=[N+]([O-])[O-].[Ag+]` [AgNO3, silver nitrate], the MIC by setting is: (K. pneumoniae isolate NP401) 3 parts silver per million; (K. pneumoniae isolate NP403 (first listing)) 6 parts silver per million; (K. pneumoniae isolate NP403 (second listing)) 6 parts silver per million; (K. pneumoniae isolate NP406) 1 parts silver per million; (Klebsiella pneumoniae, aerobic conditions (+)) 3 µg/mL; (Klebsiella pneumoniae, anaerobic conditions (Aerobic −)) 3 µg/mL.

(Values after patent US20080050452A1, “METAL-CONTAINING FORMULATIONS AND METHODS OF USE” (priority 2006, published 2008).)
